Biological target: T1, BRD9 (Homo sapiens, UniProt Q9H8M2)
T1 sequence (Q9H8M2 1-597): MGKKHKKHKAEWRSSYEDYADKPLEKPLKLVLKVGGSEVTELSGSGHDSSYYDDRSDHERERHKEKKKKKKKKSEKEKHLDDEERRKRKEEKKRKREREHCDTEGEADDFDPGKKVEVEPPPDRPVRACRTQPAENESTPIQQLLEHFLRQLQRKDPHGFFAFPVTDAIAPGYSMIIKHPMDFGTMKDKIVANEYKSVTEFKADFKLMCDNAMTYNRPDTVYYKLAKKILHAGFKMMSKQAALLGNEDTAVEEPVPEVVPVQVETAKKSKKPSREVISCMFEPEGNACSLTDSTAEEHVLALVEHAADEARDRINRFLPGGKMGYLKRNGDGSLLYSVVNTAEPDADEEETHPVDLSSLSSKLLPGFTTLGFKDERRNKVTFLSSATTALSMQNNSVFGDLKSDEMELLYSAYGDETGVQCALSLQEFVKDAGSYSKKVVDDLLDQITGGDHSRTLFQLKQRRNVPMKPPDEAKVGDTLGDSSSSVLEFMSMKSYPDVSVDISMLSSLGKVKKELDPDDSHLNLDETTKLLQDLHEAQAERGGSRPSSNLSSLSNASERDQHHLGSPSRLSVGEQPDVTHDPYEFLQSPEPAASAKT
Experiment: BRD9 degradation, HiBiT-BRD9 KI HEK293 (LgBiT) cells, NanoGlo Lytic Endpoint assay (Assay Protocol 1)
Format: cell-based
Settings: Table 2, BRD9 degradation, Assay Protocol 1; for Dmax at 1 µM: HEK293, 1 μM compound at 6 h of treatment, read-out: Assay 1 Dmax; for DC50: 6 h of treatment, read-out: Assay 1 DC50
Method: HiBiT-BRD9 KI HEK293 (LgBiT) Cells (Promega CS3023412) were seeded at 8000 cells per well (38 μL) in sterile white bottom 384 well plates (Invitrogen 164610 or Greiner 781080) and incubated overnight at 37° C. with 5% CO2. The next day, compounds were prepared at 1000× final concentration in DMSO and diluted 1:100 in media (DMEM PAN Biotech P04-03550+10% FBS ATCC 302025). 4 μL compound was added to each well of the cell plate and incubated for 6 h at 37° C. with 5% CO2 BRD9 expression was quantified using the NanoGlo Lytic Endpoint assay (Promega N3050). The lytic buffer was equilibrated to room temperature for 10-15 min before lytic reagent was prepared by adding substrate (1:50) and LgBit protein (1:100) in lytic buffer. 40 μL lytic reagent mix was added to each well of the cel plate and plates were centrifuged briefly at ˜50g. Plates were incubated with shaking (350 RPM) for 12-24 min before reading using the LUM plus module of a BMG Pherastar FSX. Data was analysed using Dotmatics software and % BRD9 remaining was calculated by normalisation to average data from high and low control wells (DMSO treated cels and no cells respectively).

Dmax at 1 µM | DC50 | Structure (SMILES)
> 75% | < 1.25 nM | COc1cc(-c2cn(C)c(=O)c3cnccc23)cc(OC)c1CN1CCN(Cc2cccc3c2CCN(C(=O)/C(C#N)=C/c2nc4ccccc4s2)C3C)CC1 (mixture of isomers) [Compound A6]
40 to 70% | < 1.25 nM | COc1cc(-c2cn(C)c(=O)c3cnccc23)cc(OC)c1CN1CCN(Cc2cccc3c2CCN(C(=O)/C(C#N)=C\c2nc(C)cs2)C3C)CC1 (mixture of isomers) [Compound A9, (E/Z)-2-(5-((4-(2,6-dimethoxy-4-(2-methyl-1-oxo-1,2-dihydro-2,7-naphthyridin-4-yl)benzyl)piperazin-1-yl)methyl)-1-methyl-1,2,3,4-tetrahydroisoquinoline-2-carbonyl)-3-(4-methylthiazol-2-yl)acrylonitrile]
40 to 70% | 1.25 to 10 nM | COc1cc(-c2cn(C)c(=O)c3cnccc23)cc(OC)c1CN1CCN(Cc2cccc3c2CCN(C(=O)/C(C#N)=C\c2ccon2)C3C)CC1 (mixture of isomers) [Compound A11, (E/Z)-2-(5-((4-(2,6-dimethoxy-4-(2-methyl-1-oxo-1,2-dihydro-2,7-naphthyridin-4-yl)benzyl)piperazin-1-yl)methyl)-1-methyl-1,2,3,4-tetrahydroisoquinoline-2-carbonyl)-3-(isoxazol-3-yl)acrylonitrile]
40 to 70% | 10 to 25 nM | COc1cc(-c2cn(C)c(=O)c3cnccc23)cc(OC)c1CN1CCN(Cc2cccc3c2CCN(C(=O)/C(C#N)=C\c2ccc(F)cn2)C3C)CC1 (mixture of isomers) [Compound A12, (E/Z)-2-(5-((4-(2,6-dimethoxy-4-(2-methyl-1-oxo-1,2-dihydro-2,7-naphthyridin-4-yl)benzyl)piperazin-1-yl)methyl)-1-methyl-1,2,3,4-tetrahydroisoquinoline-2-carbonyl)-3-(5-fluoropyridin-2-yl)acrylonitrile]
40 to 70% | 1.25 to 10 nM | COc1cc(-c2cn(C)c(=O)c3cnccc23)cc(OC)c1CN1CCN(Cc2cccc3c2CCN(C(=O)/C(C#N)=C\c2nc(C)c(C)s2)C3C)CC1 (mixture of isomers) [Compound A13, (E/Z)-2-(5-((4-(2,6-dimethoxy-4-(2-methyl-1-oxo-1,2-dihydro-2,7-naphthyridin-4-yl)benzyl)piperazin-1-yl)methyl)-1-methyl-1,2,3,4-tetrahydroisoquinoline-2-carbonyl)-3-(4,5-dimethylthiazol-2-yl)acrylonitrile]
40 to 70% | 1.25 to 10 nM | COc1cc(-c2cn(C)c(=O)c3cnccc23)cc(OC)c1CN1CCN(Cc2cccc3c2CCN(C(=O)/C(C#N)=C\C2CCOCC2)C3C)CC1 (mixture of isomers) [Compound A17, (E/Z)-2-(5-((4-(2,6-dimethoxy-4-(2-methyl-1-oxo-1,2-dihydro-2,7-naphthyridin-4-yl)benzyl)piperazin-1-yl)methyl)-1-methyl-1,2,3,4-tetrahydroisoquinoline-2-carbonyl)-3-(tetrahydro-2H-pyran-4-yl)acrylonitrile]
40 to 70% | < 1.25 nM | COc1cc(-c2cn(C)c(=O)c3cnccc23)cc(OC)c1CN1CCN(Cc2cccc3c2CCN(C(=O)/C(C#N)=C\C(C)(C)CF)C3C)CC1 (mixture of isomers) [Compound A18, (E/Z)-2-(5-((4-(2,6-dimethoxy-4-(2-methyl-1-oxo-1,2-dihydro-2,7-naphthyridin-4-yl)benzyl)piperazin-1-yl)methyl)-1-methyl-1,2,3,4-tetrahydroisoquinoline-2-carbonyl)-5-fluoro-4,4-dimethylpent-2-enenitrile]
40 to 70% | 1.25 to 10 nM | COc1cc(-c2cn(C)c(=O)c3cnccc23)cc(OC)c1CN1CCN(Cc2cccc3c2CCN(C(=O)/C(C#N)=C\C(C)C)C3C)CC1 (mixture of isomers) [Compound A19, (E/Z)-2-(5-((4-(2,6-dimethoxy-4-(2-methyl-1-oxo-1,2-dihydro-2,7-naphthyridin-4-yl)benzyl)piperazin-1-yl)methyl)-1-methyl-1,2,3,4-tetrahydroisoquinoline-2-carbonyl)-4-methylpent-2-enenitrile]
> 75% | 1.25 to 10 nM | COc1cc(-c2cn(C)c(=O)c(C)c2C)cc(OC)c1CN1CCN(Cc2cccc3c2CCN(C(=O)/C(C#N)=C/c2nc4ccccc4s2)C3C)CC1 (mixture of isomers) [Compound A20]
70 to 75% | < 1.25 nM | COc1cc(-c2cn(C)c(=O)c(C)c2C)cc(OC)c1CN1CCN(Cc2cccc3c2CCN(C(=O)/C(C#N)=C\c2nc(C)cs2)C3C)CC1 (mixture of isomers) [Compound A21]
40 to 70% | 1.25 to 10 nM | COc1cc(-c2cn(C)c(=O)c3cnccc23)cc(OC)c1CN1CCN(Cc2cccc3c2CCN(C(=O)/C(C#N)=C\c2ccns2)C3C)CC1 (mixture of isomers) [Compound A23, (E/Z)-2-(5-((4-(2,6-dimethoxy-4-(2-methyl-1-oxo-1,2-dihydro-2,7-naphthyridin-4-yl)benzyl)piperazin-1-yl)methyl)-1-methyl-1,2,3,4-tetrahydroisoquinoline-2-carbonyl)-3-(isothiazol-5-yl)acrylonitrile]
40 to 70% | < 1.25 nM | COc1cc(-c2cn(C)c(=O)c3cnccc23)cc(OC)c1CN1CCN(Cc2cccc3c2CCN(C(=O)/C(C#N)=C\C2CCC2)C3C)CC1 (mixture of isomers) [Compound A24, (E/Z)-3-cyclobutyl-2-(5-((4-(2,6-dimethoxy-4-(2-methyl-1-oxo-1,2-dihydro-2,7-naphthyridin-4-yl)benzyl)piperazin-1-yl)methyl)-1-methyl-1,2,3,4-tetrahydroisoquinoline-2-carbonyl)acrylonitrile]
> 75% | < 1.25 nM | COc1cc(-c2cn(C)c(=O)c3cnccc23)cc(OC)c1CN1CCN(Cc2cccc(C3CCCN3C(=O)/C(C#N)=C/c3nccs3)c2)CC1 (mixture of isomers) [Compound A33, (E/Z)-2-(2-(3-((4-(2,6-dimethoxy-4-(2-methyl-1-oxo-1,2-dihydro-2,7-naphthyridin-4-yl)benzyl)piperazin-1-yl)methyl)phenyl)pyrrolidine-1-carbonyl)-3(thiazol-2-yl)acrylonitrile]
40 to 70% | 1.25 to 10 nM | COc1cc(-c2cn(C)c(=O)c3cnccc23)cc(OC)c1CN1CCN(C(=O)c2ccc(C3CCCN3C(=O)/C(C#N)=C/c3nccs3)cc2)CC1 (mixture of isomers) [Compound A34, (E/Z)-2-(2-(4-(4-(2,6-dimethoxy-4-(2-methyl-1-oxo-1,2-dihydro-2,7-naphthyridin-4-yl)benzyl)piperazine-1-carbonyl)phenyl)pyrrolidine-1-carbonyl)-3-(thiazol-2-yl)acrylonitrile]
40 to 70% | 1.25 to 10 nM | COc1cc(-c2cn(C)c(=O)c3cnccc23)cc(OC)c1CN1CCN(Cc2cccc3c2CCN(C(=O)/C(C#N)=C/c2c(F)cccc2F)C3C)CC1 (mixture of isomers) [Compound A35, (E/Z)-3-(2,6-difluorophenyl)-2-[5-[[4-[[2,6-dimethoxy-4-(2-methyl-1-oxo-2,7-naphthyridin-4-yl)phenyl]methyl]piperazin-1-yl]methyl]-1-methyl-3,4-dihydro-1H-isoquinoline-2-carbonyl]prop-2-enenitrile]

Source: patent publication US20260092061A1, “COMPOUNDS FOR TARGETED PROTEIN DEGRADATION” (Amphista Therapeutics Limited, priority 2022, published 2026)
